# Measured values as given in patent US20230295229A1, “PEPTIDE SELECTIVELY BINDING TO CANCER CELL-DERIVED EXOSOME, AND USES THEREOF” (KYUNGPOOK NATIONAL UNIVERSITY INDUSTRY-ACADEMIC COOPERATION …, priority 2020, published 2023).
# Primed or numbered codes have the meaning given here. No end group written: not given here. FITC′ = not defined here
# What was measured:
# [1] = test system: A549 tumor nude mouse model; assay: co-administration of doxorubicin and ExoPep-KLA in the A549 tumor nude mouse model; format: in vivo
# Method: In the A549 tumor nude mouse model, ExoPep-KLA peptide was administered three times a week at the indicated time points, and doxorubicin was administered once a week for three weeks. The timing of single and co-administration was shown in the treatment protocol (FIG. 16A).
# [2] = test system: A549 tumor nude mouse model; assay: anticancer effect in the A549 tumor nude mouse model; format: in vivo
# Method: To test anticancer effect using ExoPep-KLA in the A549 tumor nude mouse model, ExoPep-KLA peptides were pre-reacted with exosomes either alone or in vitro and then systemically administered intravenously for 3 weeks at the time points indicated in the protocol, and doxorubicin was administered once a week for 3 weeks (FIG. 14A).
# A549 cells [3] = assay: cell viability CCK-8 assay with GW4869; format: cell-based, human; conditions: various concentrations, 3 hours serum-free then 24 hours
# [4] = test system: exosome release of A549 cells; assay: inhibition of exosome release, western blotting of exosome markers; format: cell-based, human; conditions: 10 μM compared to 2.5 and 5 μM
# Method: In order to further identify the binding specificity of ExoPep to exosomes, GW4869 ([…], Sigma-Aldrich), a drug that inhibits the release of exosome out of cells, was treated to cells at various concentrations (2.5, 5, and 10 μM). Thereafter, exosomes were isolated, and electrophoresis and western blotting with antibodies against CD63, Alix, Tsg101, and calnexin (Abcam) were performed in the same manner as described in FIG. 1.
# A549 cells [5] = assay: internalization of exosomes and ExoPep after GW4869, immunofluorescence staining; format: cell-based, human; conditions: 10 μM GW4869
# Method: Based on the above results, using 10 μM GW4869 inhibitor, the binding of the ExoPep peptide to the exosomes and internalization thereof were analyzed.
# A549 tumor mice = assay: in vivo distribution imaging of DiD-labeled exosomes with or without ExoPep; parameters: species or system mouse; conditions: without exosomes
# Method: DiD-labeled A549 tumor mouse blood-derived exosomes and A549 cell-derived exosomes were reacted with ExoPep peptide, and image monitoring was performed for in vivo distribution. Tumor xenograft mice were prepared by subcutaneously implanting A549 cell suspension (5×10^6 cells) along with PBS into the right flank of 5-week-old female BALB/c nude mice. When the tumor size reached a volume of approximately 100-200 mm^3, the mice were anesthetized. A549 tumor mice was intravenously administered with DiD-labeled A549 tumor mouse blood-derived exosomes (mEXO) and a product obtained by reacting the exosomes (mEXO) with peptides (mEXO+ExoPep, n=3) as well as DiD-labeled A549 cell-derived exosomes (cEXO) and a product obtained by reacting the exosomes (cEXO) with peptides (cEXO+ExoPep, n=3). The inventors of the present disclosure used FITC-labeled control peptide and ExoPep (n=3) as controls. In vivo fluorescence images were analyzed using an IVIS imaging system (Caliper Life Sciences, Massachusetts, USA) at various time points (2, 4, 8, and 24 hours, respectively) after administration of DiD-labeled exosomes. In vitro fluorescence images of excised tumors and organs were collected 24 hours after administration. All major organs (liver, kidney, spleen, heart, and lung) having tumor tissues were separated, washed with PBS, and subjected to in vitro fluorescence analysis (n=3).
# [6] = test system: exosomes derived from normal HEK293 cells / HEK293 cells; assay: confocal microscopy of peptide internalization with exosomes; format: cell-based; conditions: same manner
# Method: (§1) Media of A549, HEK293, and MDA-MB231 cells were collected, exosomes were isolated through ultracentrifugation, and exosomes were labeled with DiD fluorescence reagent (red), followed by a reaction with ExoPep peptide (FITC label, green). After the reaction, the cells were immobilized, and the nuclei were stained with DAPI (blue) to analyze with confocal microscopy. More specifically, the isolated exosomes and DiD (1:200 dilution) were reacted on a stirrer at 37° C. for 30 minutes. After adding Exoquick reagent, condition was maintained at 4° C. for 30 minutes, and then DiD-labeled exosomes were precipitated by centrifugation at 13000 rpm for 3 minutes. Thereafter, a mixture of 10 uM FITC-conjugated peptide and DiD-labeled exosomes was reacted with A549 cells at 37° C. for 1 hour. After washing three times, immobilization was performed using 2% paraformaldehyde (PFA). After washing again, cells were treated with 4′-6-diamidino-2-phenylindole (DAPI) for nucleus staining. Finally, after mounting, observation was followed using a confocal microscope (Zeiss, Oberkochen, Germany).
# On the other hand, the exosomes derived from normal HEK293 cells were treated in the same manner as described above and observed under a confocal microscope (Zeiss, Oberkochen, Germany).
# [7] = test system: A549 cell-derived exosomes; assay: inhibition of exosome internalization by magnetic removal of peptide-bound exosomes; format: cell-based, human; conditions: exosomes pretreated with biotin-labeled peptide, then removed with magnet
# Method: (§2) In order to further identify the binding specificity of the ExoPep peptide to the A549 cell-derived exosome, the exosomes were labeled with a DID fluorescent dye, reacted with the biotin-labeled ExoPep peptide, and then conjugated with biotin by reacting the labeled avidin with magnetic particles. The complex of exosomes/biotin-peptide/avidin-magnetic particles prepared by the reaction was captured and removed using a magnet, and the remaining exosomes were treated to recipient cells (FIG. 5A).
# [8] = test system: exosomes derived from normal HEK293 cells; assay: as above; format: cell-based; conditions: exosomes pretreated with biotin-labeled peptide, then removed with magnet
# Method: as §2
# On the other hand, internalization of exosomes into recipient cells was not reduced by pretreatment with the control peptide (sequence: NSSSVDK) (FIG. 5B). In addition, when a similar experiment was conducted on exosomes derived from normal HEK293 cells, the internalization of exosomes into recipient cells was not inhibited by the ExoPep peptide of an example embodiment of the present disclosure as well as the control peptide (FIG. 5C).
# [9] = test system: A549 cell-derived exosome / A549 cells; assay: confocal microscopy of peptide internalization with exosomes; format: cell-based, human; conditions: 10 uM FITC-conjugated peptide, DiD-labeled exosomes, 37° C., 1 hour
# Method: as §1
compound,measurement,setting,value
COc1cccc2c1C(=O)c1c(O)c3c(c(O)c1C2=O)C[C@@](O)(C(=O)CO)C[C@@H]3O[C@H]1C[C@H](N)[C@H](O)[C@H](C)O1 [doxorubicin],size of tumor,"[1]; 2.5 mg/kg, compared to phosphate buffer",slightly reduced
same,size of tumor,[1]; 5 mg/kg,more strongly inhibited
same,metastatic nodules and microscopic nodules,"[1]; 5 mg/kg, compared to buffer",significantly reduced
same,tumor growth,"[2]; intravenous, 3 weeks",significantly inhibited
same,weight of tumor,"[2]; mouse, in vivo",reduced
O=C(/C=C/c1ccc(/C=C/C(=O)Nc2ccc(C3=NCCN3)cc2)cc1)Nc1ccc(C2=NCCN2)cc1 [GW4869],cytotoxicity (CCK-8),A549 cells [3],did not show toxicity even at high concentration
same,"exosome markers such as CD63, Alix, and Tsg101",[4],greatly reduced
same,internalization of exosomes and peptides bound therewith,A549 cells [5],significantly reduced
"NSSSVDK (NSSSVDK-{FITC′}) [control peptide, reference compound]",fluorescence signal of FITC-labeled peptide itself,A549 tumor mice,low signals
same,peptide observed in cells (internalization with exosomes),[6],not observed in the cells
same,internalization of exosomes into recipient cells,[7],not reduced
same,internalization of exosomes into recipient cells,[8],not inhibited
same,peptide observed in cells (internalization with exosomes),[9],not observed
